Marks after values point to notes of the source that are not given here.
What was measured:
[1] = Cell surface hydrophobicity (bacterial adherence to hydrocarbon, xylene); assay type: physicochemical; settings: at 60 min
Description: Based on the ability of bacteria to adhere to hydrocarbons, the cell surface hydrophobicity of strain AKK PROBIO was measured. A test of bacterial adherence to hydrocarbon (BATH) was conducted using xylene, and some modifications were made. Specifically, the strains were cultured overnight in a BHI medium at 37° C. Cells were collected by centrifugation (4° C.; 8000 rpm; 10 min), washed twice, and resuspended in a phosphate buffer (PBS, pH 7), and absorbance (OD600 nm) was adjusted to 0.5 to normalize bacteria number. Then, an equal volume of xylene was added and vortexed for 5 min to fully mix a two-phase system. After the incubation at room temperature for 15, 30, and 60 min, an aqueous phase was carefully removed, and its absorbance at 600 nm was measured using a spectrophotometer. The affinity (hydrophobicity) for the hydrocarbons was calculated using the following formula:
[formula] • where P0 and P1 are absorbance values before and after extraction with the hydrocarbons, respectively.

Auto-aggregation = assay type: physicochemical; settings: 37° C., at 20 h
Description: The absorbance (OD600 nm) was adjusted to 0.5. Then the bacterial suspension was cultured at 37° C., and its absorbance at 600 nm at 4, 8, 12, 16, 20, and 24 h was measured. The auto-aggregation percentage was calculated using the following formula: […]

[2] = Tolerance to artificial gastric juice; assay type: physicochemical; settings: artificial gastric juice pH 2.0, 37° C., at 240 min
Description: (§1) Gastric juice ([…], 2 g/L NaCl, and 3.2 g/L pepsin, pH 2.0) and intestinal juice (6.8 g/L KH2 PO4, 10 g/L trypsin, and 0.1M NaOH, pH 8.0) were prepared, and then the gastric juice and the intestinal juice were filtered and sterilized using 0.22 μm sterile filter. […] The bacterial cells were washed twice with sterile saline and resuspended in 5 mL saline. A bacterial solution was mixed well with the sterile artificial gastric or intestinal juice in 1:1 (v/v). The mixture was shaken well, and then was placed in a constant-temperature incubator and culture was performed at 37° C.

[3] = Tolerance to artificial intestinal juice; assay type: physicochemical; settings: artificial intestinal juice pH 8.0, 37° C., at 240 min
Description: as §1

mice = assay: Subchronic toxicity experiment, 90 d; assay type: in vivo
Description: Animals were randomly divided into four groups: group 1 (half male and half female) (saline, 0 CFU/kg. bw/d), group 2 (half male and half female) (9.2×10^8 CFU/kg. bw/d), group 3 (half female and half male) ([…]), and group 4 (half male and half female) (92×10^8 CFU/kg. bw/d). A new bacterial suspension was prepared per day. The bacterial suspension was intragastrically administrated orally for 90 consecutive days at a dosage volume of 5 mL/kg. bw. Clinical signs were recorded per day, and detailed clinical observation was conducted once a week. The body weight, the food consumption, and the water intake were recorded once a week. At the end of the experimental period, blood samples were collected for hematological and serum biochemical analysis (refer to Embodiment 4). An autopsy was conducted on all animals, and the weight of main organs was recorded. A histopathological examination was performed on the major organs and tissue of all the animals in each group (refer to Embodiment 4). […]
Determination of blood glucose: In a certain time interval after administration, at 0, 15, 30, 60, 90 and 120 min, the tail venous blood of the mouse was taken, and the blood glucose level of the mouse was measured using a blood glucose meter measurement method. […]

[4] = test system: gouty arthritis mouse model; assay: Gouty arthritis mouse model (sodium urate); assay type: in vivo, BALB/c mice; settings: for SOD in mouse ankle joint tissue: model group 1.07, normal 6.07; for MPO in mouse ankle joint tissue: model group 2.49, normal 0.38; for GSH in mouse ankle joint tissue: model group 18.06, normal 47.05; for IL-1β in serum of mice: model group 24.97, normal 12.66; for MDA in mouse ankle joint tissue: model group 26.69, normal 5.74; for IL-10 in serum of mice: model group 36.03, normal 27.20; for IL-6 in serum of mice: model group 90.05, normal 52.97; for TNF-α in serum of mice: model group 249.41, normal 117.58
Description: Mice were randomly divided into 5 groups: a normal group, a model group, a glucosamine sulfate (positive control) group, an Akk low-concentration experimental (Akk-L) group, and an Akk high-concentration experimental (Akk-H) group, with 10 mice in each group. The mice in the normal group and the mice in the model group were intragastrically administered with distilled water at a dosage of 0.1 mL/10 g. bw per day. The mice in the glucosamine sulfate group were intragastrically administered with glucosamine sulfate at a dosage of 195 mg/kg. bw. The mice in the Akk-L group and the mice in the Akk-H group were intragastrically administered with Akk experimental bacteria at a dosage of 10^8 CFU/kg. bw and 10^9 CFU/kg. bw, respectively, for 7 consecutive days. Then, all experimental mice were anesthetized with isoflurane, and then 50 μL of PBS solution was injected into the tibiotarsal joint (ankle joint) of the right paw of the mouse in the normal group. 50 mg of sodium urate was added to 1 mL of PBS buffer to prepare a suspension. 50 μL of suspension was injected into the tibiotarsal joints (ankle joint) of the right paws of the rest of the mice except the mice in the […] to induce gouty arthritis. After the mice woke up, they were intragastrically administrated with a corresponding sample for 7 d still at the dosage of the sample intragastrically administrated in the previous 7 days.
0.1 g of mouse ankle joint tissue was weighed and added into […] containing 0.9 mL of saline and mixing was performed. Subsequently, mixed tissue samples were centrifuged at a speed of 4000 rpm for 10 min to obtain liquid supernatant. Next, related indicators in the liquid supernatant of a tissue homogenate was determined using assay kits for MPO, SOD, GSH, and MDA.
A taken-out whole blood sample of the mouse was centrifuged at 4° C. at 4000 rpm for 10 min to obtain supernatant serum. Serum-related inflammatory indicators were determined using the ELISA kit for IL-6, IL-10, IL-1β, and TNF-α.

[5] = test system: APP/PS1 double transgenic mice; assay: Alzheimer's disease in APP/PS1 double transgenic mice; assay type: in vivo; settings: 1*10^9 CFU/mouse/d 30 d
[6] = Akk-H 10^9 CFU/kg. bw intragastric
[7] = Akk-L 10^8 CFU/kg. bw intragastric

In the case of Akkermansia muciniphila [AKK PROBIO], the hydrophobicity [1] is reported as no less than 30%, the auto-aggregation (Auto-aggregation) is reported as “around 52%” and the “survival rate in gastric juice” value [2] is reported as “around 85%”. For the same substance, the “survival rate in intestinal juice” value [3] was no less than 80%, the “pathological injury to the livers and kidneys” value (mice; 90 d) was “no significant pathological injury” and the “weight of major organs” value (mice; 90 d, heart, liver, spleen, kidneys, thymus, brain, testes, lungs, pancreas, stomach, intestine, vs control group) was “substantially no significant difference”. For the same substance, the “changes of blood glucose per week” value (mice; 90 d, medium-dosage group (27.6×10^8) vs control saline group) was “significant difference”, the “changes of blood glucose per week” value (mice; 90 d, the other groups (low, high dosage) vs control group) was “no significant difference” and the “level of the bile acid both in serum and liver” value (mice; 90 d, the other groups vs control group) was “no significant difference”. The “activity of glutamic oxalacetic transaminase in both serum and liver” value (mice; 90 d, vs control group) was “no significant difference”, the “activity of glutamic pyruvate transaminase in both serum and liver” value (mice; 90 d, vs control group) was “no significant difference” and the “blood glucose regulation ability (glucose tolerance and insulin tolerance)” value (mice; 90 d, vs control group) was “no significant difference”. For the same substance, the “concentration of blood urea nitrogen in serum” value (mice; 90 d, vs control group) was “no significant difference”, the “content of creatinine in serum” value (mice; 90 d, vs control group) was “no significant difference” and the “content of total protein in both serum and liver” value (mice; 90 d, vs control group) was “no significant difference”. For the same substance, the “level of glucose in both serum and liver” value (mice; 90 d, vs control group) was “no significant difference”, the “level of the cholesterol in both liver and serum” value (mice; 90 d, vs control group) was “no significant difference” and the “level of the triglyceride in both liver and serum” value (mice; 90 d, vs control group) was “no significant difference”. The “changes of body weight per week” value (mice; 90 d, vs control saline group) was “no significant difference”, the “changes of food intake per week” value (mice; 90 d, vs control saline group) was “no significant difference” and the various blood indicators (mice; 90 d, vs control saline group) was “no significant difference”. For the same substance, the death (mice; intragastric 90 consecutive days, high, medium, low dosage (92×10^8, 27.6×10^8, 9.2×10^8 CFU/kg. bw/d)) was “no death occurs”, the “SOD in mouse ankle joint tissue” value [4, 6] was 4.70 ± 0.16 U/mg and the “MPO in mouse ankle joint tissue” value [4, 6] was 0.77 ± 0.06 U/g. For the same substance, the “GSH in mouse ankle joint tissue” value [4, 6] was 39.28 ± 2.39 mg/g, the “IL-1β in serum of mice” value [4, 6] was 18.48 ± 1.34 ng/mL and the “MDA in mouse ankle joint tissue” value [4, 6] was 12.97 ± 1.20 nmol/mg. The “IL-10 in serum of mice” value [4, 6] was 28.72 ± 1.35 ng/mL, the “IL-6 in serum of mice” value [4, 6] was 58.83 ± 2.60 ng/mL and the “TNF-α in serum of mice” value [4, 6] was 148.87 ± 9.60 ng/mL. The “SOD in mouse ankle joint tissue” value [4, 7] was 2.31 ± 0.43 U/mg, the “MPO in mouse ankle joint tissue” value [4, 7] was 1.97 ± 0.19 U/g and the “GSH in mouse ankle joint tissue” value [4, 7] was 29.89 ± 2.63 mg/g. For the same substance, the “IL-1β in serum of mice” value [4, 7] was 21.83 ± 1.72 ng/mL, the “MDA in mouse ankle joint tissue” value [4, 7] was 20.93 ± 1.30 nmol/mg and the “IL-10 in serum of mice” value [4, 7] was 34.17 ± 2.18 ng/mL. For the same substance, the “IL-6 in serum of mice” value [4, 7] was 71.59 ± 5.46 ng/mL, the “TNF-α in serum of mice” value [4, 7] was 211.76 ± 10.58 ng/mL and the “Serum IL-4” value ([5]; APP group 35.00, WT 106.52) was 70.42 ± 3.40^c. The “Serum CCL2” value ([5]; APP group 80.13, WT 59.07) was 67.74 ± 1.51^b, the “Serum CXCL1” value ([5]; APP group 168.91, WT 14.87) was 56.40 ± 2.88^b and the “Serum IL-10” value ([5]; APP group 565.36, WT 2779.61) was 2133.04 ± 18947^b.
